Test results: paper PMC8350397, “GSK137, a potent small-molecule BCL6 inhibitor with in vivo activity, suppresses antibody responses in mice” (The Journal of Biological Chemistry, 2021)

What was measured:
[1] = Chromatographic log D / property forecast index; format: physicochemical
[2] = Permeability (Papp); format: in vitro ADME; conditions: not told
[3] = system: TNP-specific IgM and IgG responses; assay: TNP-KLH immunization model, serum anti-TNP antibodies; format: in vivo, mouse
Method: (§1) Male CD1 mice (30–40 g, 8–9 weeks of age) were randomized into study treatment groups, housed individually and allowed to acclimatize under standard laboratory conditions for a minimum of 5 days prior to commencement of the study. Mice received food and water ad libitum. The experiment was performed in a certified dedicated in vivo experimental laboratory at the GlaxoSmithKline Medicines Research Centre, Stevenage, United Kingdom. The four treatment groups were (1) unimmunized and untreated (naive group) (n = 4); (2) intraperitoneal vehicle (n = 13), (3) GSK137 15 mg/kg (n = 14), and (4) GSK137 30 mg/kg (n = 14). Groups (2) to (4) were given intraperitoneal immunization with TNP–KLH (100 μg) on day 0, vehicle was 1% methylcellulose in water + 0.1% sodium lauryl sulphate, and compound or vehicle was given to groups (2) to (4) by oral gavage three times per day from day −1 to day +12. Blood samples were collected by tail vein for measurement of compound, IgM and IgG levels on days 0, 5, 8, and 12 ahead of immunization/first daily dose. On day 8, blood samples were also taken (n = 7) at 0.5, 1.5, 3, 5, or 7 h after first daily dose. On day 12, spleens were collected, weighed, and placed into Dulbecco's modified Eagle's medium on wet ice for analysis by flow cytometry.
For antibody measurements, TNP–bovine serum albumin–coated plates were blocked, and then, standards or serum samples diluted 1:1000 or 1:2500 were incubated for 2 h at room temperature before biotinylated antimouse IgG or IgM antibodies were allowed to bind for 1 h at room temperature and detected using streptavidin-bound horseradish peroxidase incubated for 30 min, followed by the addition of 3,3′,5,5′-tetramethylbenzidine substrate for 15 min. The reaction was stopped, and the plates read at 450 nm by spectrophotometry. Plates were washed between each incubation step to remove unbound reagent. Data analysis was carried out in GraphPad Prism 5 (GraphPad Software, Inc) software using a four-parameter logistic fit of the standards response.

[4] = system: splenic GC B cells and Tfh cells; assay: TNP-KLH immunization model, flow cytometry of spleen cells; format: in vivo, mouse; conditions: for reduction of mean absolute number of Tfh cells per spleen vs vehicle: day 12, not statistically significant
Method: as §1
For cell measurements, spleens were passed through a […] cell strainer, red blood cells were lysed, and cells were resuspended in medium, counted, and 1 × 10^6 cells plated for staining. Cells were washed in PBS and resuspended in 100 μl viability dye (diluted 1:1000 in PBS) for 15 min at room temperature. About 100 μl cell-staining buffer (CSB; BioLegend; catalog no. 420201) was added to each well before centrifugation and removal of supernatants, and cell pellets were resuspended in 100 μl relevant cocktail of antibodies (Table S2) for surface staining and incubated for 30 min at 4 °C. Cells were then washed in CSB and resuspended in 200 μl of FoxP3 fixation and permeabilization buffer for 30 min for staining of intracellular markers for 30 min. Cells were washed in PermWash buffer and resuspended in CSB (250 μl) before acquisition of a Cytek Aurora spectral cytometer (Cytek). Gating was carried out as shown (Figs. S1 and S2), and data were analyzed on FlowJo 10 (Becton Dickinson). Cell frequency was used to calculate an absolute cell number per tissue from the total live cell counts from whole homogenized spleen. Data were normalized against background GC and Tfh quantified in naive mice prior to performing percent inhibition calculations.
Single cell suspensions were generated by passing spleens through a 40 µM cell strainer into medium (RPMI 1640 supplemented with 2% fetal calf serum, 1% penicillin / streptomycin, 1% L-glutamine). Following centrifugation (400 g, 5 minutes, 4 °C) and removal of supernatants, red blood cells were lysed by incubation in 1 mL lysis buffer for 1 minute at room temperature. Cells were resuspended in medium, counted on a Nucleocounter NC3000 (Chemometec, Lillerød, Denmark) and 1x10^6 cells plated into 96-well polypropylene plates for staining. Cells were washed in 200 µL PBS and resuspended in 100 µL viability dye (diluted 1:1000 in PBS) for 15 minutes at room temperature. 100 µL cell staining buffer (CSB) (BioLegend, San Diego, CA, USA, #420201) was added to each well before centrifugation and removal of supernatants. Cell pellets were resuspended in 100 µL relevant cocktail of antibodies (see Tables S2 and S3) for surface staining and incubated for 30 minutes at 4 °C. Cells were washed in CSB and resuspended in 200 uL of FoxP3 fixation and permeabilisation buffer for 30 minutes in the dark at room temperature, washed and stained for intracellular markers for 30 minutes at room temperature. Cells were washed in Permwash and resuspended in CSB (250 µL) before acquisition on a Cytek Aurora spectral cytometer (Cytek, Fremont, CA, USA). […]

Question: For `Cc1ncccc1[C@H]1C[C@@H](c2cccc3nc(N)ccc23)Nc2c(F)cnn21` [GSK137, 5-((5S,7R)-3-Fluoro-7-(2-methylpyridin-3-yl)-4,5,6,7-tetrahydropyrazolo[1,5-a]pyrimidin-5-yl)quinolin-2-amine], which chromatographic logD ([1]; determined chromatographically, read-out: Chrom LogD) is on record?
Answer: The chromatographic logD was 2.3.

Question: What about the “PFI (property forecast index)” value ([1]; log D modified for the number of aromatic rings) of the same molecule?
Answer: Its value is 6.3.

Question: And the Papp [2]?
Answer: The Papp was 8.6 ×10⁻⁶ cm/s.

Question: What about the “reduction of mean TNP-specific IgM levels vs vehicle” value ([3]; 15 mg/kg orally TID, day 12, p = 0.0027) of the same molecule?
Answer: Its value is 43%.

Question: What about the “reduction of mean TNP-specific IgG levels vs vehicle” value ([3]; 15 mg/kg orally TID, day 12, p = 0.0056) of the same molecule?
Answer: Its value is 58%.

Question: What about the “reduction of mean TNP-specific IgM levels vs vehicle” value ([3]; 30 mg/kg orally TID, day 12, p < 0.0001) of the same molecule?
Answer: Its value is 58%.

Question: What about the “reduction of mean TNP-specific IgG levels vs vehicle” value ([3]; 30 mg/kg orally TID, day 12, p = 0.0023) of the same molecule?
Answer: The value was 66%.

Question: And the “inhibition of TNP-specific IgM level” value ([3]; 15 and 30 mg/kg, day 5 or day 8)?
Answer: The value was “did not inhibit”.

Question: And the “inhibition of serum TNP-specific IgG levels” value ([3]; 15 and 30 mg/kg, day 8)?
Answer: The value was “did not inhibit”.

Question: What about the “plasmablasts and plasma cells as a percentage of total viable cells vs vehicle” value ([4]; 15 mg/kg or 30 mg/kg, Fig. S6B) of the same molecule?
Answer: The value was “no statistically significant reductions”.

Question: And the “reduction of mean number of GC B cells per spleen vs vehicle” value ([4]; 15 mg/kg, day 12)?
Answer: Its value is 53%.

Question: And the “reduction of mean absolute number of Tfh cells per spleen vs vehicle” value ([4]; 15 mg/kg)?
Answer: Its value is 39%.

Question: And the “reduction of frequency of GC B cells within total splenic B cells vs vehicle” value ([4]; 15 mg/kg, day 12, p = 0.0058)?
Answer: The value was 61%.

Question: And the “reduction of mean frequency of Tfh cells as fraction of splenic CD4+ T cells vs vehicle” value ([4]; 15 mg/kg, day 12, p = 0.014)?
Answer: The value was 48%.

Question: And the “reduction of mean absolute number of Tfh cells per spleen vs vehicle” value ([4]; 30 mg/kg)?
Answer: The value was 34%.

Question: And the “reduction of frequency of GC B cells within total splenic B cells vs vehicle” value ([4]; 30 mg/kg, day 12, p = 0.0031)?
Answer: Its value is 72%.

Question: What about the “reduction of mean frequency of Tfh cells as fraction of splenic CD4+ T cells vs vehicle” value ([4]; 30 mg/kg, day 12, p = 0.0041) of the same molecule?
Answer: The value was 50%.

Question: What about the “reduction of mean number of GC B cells per spleen vs vehicle” value ([4]; 30 mg/kg, day 12, p = 0.04) of the same molecule?
Answer: Its value is 67%.

Question: What about the “number of plasmablasts and plasma cells (CD19+/intCD138+) in spleen vs vehicle” value ([4]; 15 and 30 mg/kg, after immunization) of the same molecule?
Answer: Its value is “no statistically significant difference”.

Question: And the “macrophage, dendritic cell and natural killer cell markers (CD11c, CD11b, CD161) vs vehicle” value ([4]; data not shown)?
Answer: Its value is “no difference”.

Question: And the “mean total CD4+ T-cell numbers per spleen” value ([4]; significant at 30 mg/kg (p = 0.032), not at 15 mg/kg)?
Answer: The value was “return mean CD4^+ T-cell numbers to levels observed in naive mice”.
